Reference: patent US6696407B1, “Huntington's disease treatment comprising administering aldose reductase inhibitors to increase striatal CNTF” (The Regents of the University of California, priority 1997, dated 2004)
Marks after values point to notes of the source that are not given here.

What was measured:
Assay type in all cases: in vivo, rat
[1] = Sciatic nerve water content; conditions: for Water: sciatic nerve, Ponalrestat 50 mg/kg daily oral, two months
Protocol: These studies were conducted with the approval of the San Diego Veterans Administration Animal Studies Subcommittee. Female Sprague-Dawley rats (240-300 g; Charles River, San Diego, Calif.) were housed in cages with wire bottoms to reduce contact with urine and feces. Groups were established and fed either a 40% D-galactose diet or a control diet specially formulated by Purina that contained 40% solka floc, a nonnutritive fiber, to balance nutritional intake. All diets contained 100% of the micronutrients required by rats and, with water, were available ad libitum. Each of these diet groups contained animals that were treated with the ARI, Ponalrestat (50 mg/kg), daily by oral gavage. After two months, rats were anesthetized by intraperitoneal injection (1 ml/kg ip) of pentobarbital sodium (12.5 mg/ml) and diazepam (1.25 mg/ml) in bacteriostatic saline. Under deep anesthesia, motor nerve conduction velocity (MNCV) was measured in the left hindlimb prior to removal of the sciatic nerve. […]
For determination of water content and dry weight, distal segments of sciatic nerve were lightly blotted, weighed prior to freeze-drying and reweighed. Nerve polyols were measured by gas chromatography with α-methylmannoside as an internal standard (Mizisin et al., (1993) J. Neurol. Sci. 116:67-72) using a Hewlett Packard 5890 gas chromatograph (Hewlett Packard, Avondale, Pa.) fitted with a flame ionization detector and a 25 m×0.2 mm capillary column (Hewlett Packard Ultra 1). Nerve water and polyol contents are expressed as mg and nmol per mg nerve dry weight, respectively.
The effect of two months of galactose feeding and ARI treatment on body weight, nerve water and polyol content, and MNCV is shown in Table 1. Data are presented as mean ±SD (N=8 to 10) and were analyzed with a one way ANOVA after which multiple comparisons were made with the Student-Newman-Keuls test. […] ARI-treated animals received a daily oral gavage (50 mg/kg) of Ponalrestat (ND—Not detected).

[2] = Motor nerve conduction velocity (MNCV); conditions: Ponalrestat 50 mg/kg daily oral, two months
Protocol: These studies were conducted with the approval of the San Diego Veterans Administration Animal Studies Subcommittee. Female Sprague-Dawley rats (240-300 g; Charles River, San Diego, Calif.) were housed in cages with wire bottoms to reduce contact with urine and feces. Groups were established and fed either a 40% D-galactose diet or a control diet specially formulated by Purina that contained 40% solka floc, a nonnutritive fiber, to balance nutritional intake. All diets contained 100% of the micronutrients required by rats and, with water, were available ad libitum. Each of these diet groups contained animals that were treated with the ARI, Ponalrestat (50 mg/kg), daily by oral gavage. […] Under deep anesthesia, motor nerve conduction velocity (MNCV) was measured in the left hindlimb prior to removal of the sciatic nerve. […] Evoked responses were recorded with needle electrodes placed in the interosseous muscles of the ipsilateral foot, amplified (×100) with a P15 AC Amplifier (Grass Instruments Co, Quincy, Mass.) and recorded on a 5110 Storage Oscilloscope and 5D10 Waveform Digitizer (Tektronix, Inc., Beaverton, Oreg.). […] Data are presented as mean ±SD (N=8 to 10) and were analyzed with a one way ANOVA after which multiple comparisons were made with the Student-Newman-Keuls test. […] ARI-treated animals received a daily oral gavage (50 mg/kg) of Ponalrestat (ND-Not detected).

CNTF = assay: CNTF-like bioactivity of sciatic nerve homogenates (24 hour survival of E8CG neurons)
Protocol: These studies were conducted with the approval of the San Diego Veterans Administration Animal Studies Subcommittee. Female Sprague-Dawley rats (240-300 g; Charles River, San Diego, Calif.) were housed in cages with wire bottoms to reduce contact with urine and feces. Groups were established and fed either a 40% D-galactose diet or a control diet specially formulated by Purina that contained 40% solka floc, a nonnutritive fiber, to balance nutritional intake. All diets contained 100% of the micronutrients required by rats and, with water, were available ad libitum. Each of these diet groups contained animals that were treated with the ARI, Ponalrestat (50 mg/kg), daily by oral gavage. After two months, rats were anesthetized by intraperitoneal injection (1 ml/kg ip) of pentobarbital sodium (12.5 mg/ml) and diazepam (1.25 mg/ml) in bacteriostatic saline. Under deep anesthesia, motor nerve conduction velocity (MNCV) was measured in the left hindlimb prior to removal of the sciatic nerve. The proximal portion was processed for subsequent light microscopic examination and the distal portion used for gas chromatographic analysis of nerve polyols. The contralateral sciatic nerve was removed and used for assay of CNTF-like neurotrophic activity and either Northern blot or ELISA analysis of CNTF mRNA or protein, respectively.
Bioassays were performed on extracts of sciatic nerve as described previously by Calcutt et al. (1992) Brain Res. 575:320-324. Briefly, 4 mm segments were homogenized in cold Hank's balanced salt solution, centrifuged and the soluble supernatant aspirated. An aliquot of the supernatant was used to determine the amount of protein using the Bradford assay. The remaining supernatant was used to assay CNTF-like activity by the ability to support the 24 hour survival of day eight embryonic chick ciliary ganglia (E8CG) neurons. E8CG neurons were obtained from chick ciliary ganglia after trypsin treatment and trituration in Dulbecco's Modified Eagle's Medium plus 10% fetal calf serum (DMEM+10% FCS). After seeding onto a tissue culture dish for 2.5 hours to allow attachment of nonneuronal cells, unattached neurons were collected, counted and added to 96-well microtiter plates (500 neurons/well) precoated with polyornithine and laminin. Nerve homogenates were serially diluted in DMEM+10% FCS, added to the microtiter plates and incubated for 24 hours. A dose-response curve using rat recombinant CNTF was used as a standard and to establish the maximum CNTF effect for each assay. […] Cells were then fixed and the number of surviving, intact, blue-staining cells counted using phase contrast microscopy. […]

O=C(O)Cc1nn(Cc2ccc(Br)cc2F)c(=O)c2ccccc12 [Ponalrestat, 3-(4-bromo-2-fluorobenzyl)-4-oxo-3H-phthalazin-1-ylacetic acid]
Nerve water content (in words) ([1]; galactose-fed rats): restored
Water ([1]; 40% D-galactose diet rats): 1.8 ± 0.3^a mg/mg dry wt
Water ([1]; control diet rats): 1.8 ± 0.1^a mg/mg dry wt
MNCV ([2]; 40% D-galactose diet rats): 64.8 ± 5.1^a m/s
MNCV ([2]; control diet rats): 63.9 ± 4.0^a m/s
Increase of CNTF associated activity compared to normal rats that did not receive any ARI (CNTF; normal rats, survival of embryonic chick ciliary ganglia neurons): two and one-half fold increase
Increase of CNTF-like bioactivity (TU/ml) compared to untreated control animals (CNTF; sciatic nerve, control diet rats, 50 mg/kg daily oral, two months): ~250%
CNTF-like bioactivity relative to control levels (CNTF; sciatic nerve, galactose-fed rats with ARI): not restored to control levels
Increase of CNTF-like bioactivity (TU/ml) compared to the untreated galactose group (CNTF; sciatic nerve, galactose-fed rats, 50 mg/kg daily oral, two months, P<0.05): 60%
